For orientation: IC50 means the concentration needed to halve the response being measured.

Where only a bound is given, the exact number is not on record here.

The results in this text go back to patent publication US20230138851A1, “NOVEL ALKYNE DERIVATIVES” (CARNA BIOSCIENCES, INC., priority 2020, published 2023).

What all share (type): biochemical
One test concerns the target T1, DYRK1A (Homo sapiens, UniProt Q13627).
T1 construct: purchased Carna Biosciences, Inc. 04-130
Description: Inhibition test on activity of DYRK family, mobility shift assay (MSA), DYRK1A. The following applies: ATP 100 μM, FITC-labeled DYRKtide peptide substrate, room temperature 1 hour; for IC50: read-out: Inhibitory Activity 1a (IC50 against DYRK1A). Put shortly:
(§1)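 FITC-DYRKtide phosphorylation in 20 mM HEPES pH 7.5 with MgCl2; ATP in the substrate mix was 100 μM (DYRK1A), 200 μM (DYRK1B), 40 μM (DYRK2) or 20 μM (DYRK3). Reactions ran 1 h at room temperature; inhibition from P/(P+S) versus blank and DMSO control, IC50 by regression on log concentration.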

For the next test, the target named is T2, DYRK1B (Homo sapiens, UniProt Q9Y463).
T2 construct: purchased Carna Biosciences, Inc. 04-131
Description: Inhibition test on activity of DYRK family, mobility shift assay (MSA), DYRK1B. Further details: Inhibitory Activity 1b (IC50 against DYRK1B): scale not given here. To be noted: ATP 200 μM, FITC-labeled DYRKtide peptide substrate, room temperature 1 hour; for IC50: read-out: Inhibitory Activity 1b (IC50 against DYRK1B). Here is the method:
[Inhibition Test on Activity of DYRK Family (DYRK1A, DYRK1B, DYRK2, and […])]
(Method for Measuring Kinase Activity)
The kinase activity was measured by mobility shift assay (MSA) method using QuickScout Screening Assist™ MSA (commercially available kit manufactured by Carna Biosciences, Inc.). The substrate of the kinase reaction used was an FITC-labeled DYRKtide peptide included in the kit. An assay buffer [20 mM HEPES, 0.01% Triton X-100™, 2 mM dithiothreitol, pH 7.5] was used to create a substrate mixture solution with a substrate (4 μM), MgCl2 (20 mM), and ATP (DYRK1A: 100 μM; DYRK1B: 200 μM; DYRK2: 40 μM; and DYRK3: 20 μM). In addition, kinases (DYRK1A: manufactured by Carna Biosciences, Inc., Cat. No. 04-130; DYRK1B: manufactured by Carna Biosciences, Inc., Cat. No. 04-131; DYRK2; manufactured by Carna Biosciences, Inc., Cat. No. 04-132; and DYRK3; manufactured by Carna Biosciences, Inc., Cat. No. 04-133) were diluted with the assay buffer to prepare enzyme solutions (DYRK1A: 0.2 ng/μL; DYRK1B: 0.08 ng/μL; DYRK2: 0.04 ng/μL; and DYRK3: 0.25 ng/μL). The 10 mM solution of the test compound in DMSO was further diluted with DMSO to 10 levels of the concentration (0.00003 mM, 0.0001 mM, 0.0003 mM, 0.001 mM, 0.003 mM, 0.01 mM, 0.03 mM, 0.1 mM, 0.3 mM, and 1 mM), each of which was subjected to 25-fold dilution with the assay buffer to obtain a drug solution (4% DMSO solution). 5 μL of the drug solution or a control solution (4% DMSO-assay buffer), 5 μL of the substrate mixture solution, and 10 μL of the enzyme solution were mixed in the wells of a polypropylene 384-well plate and allowed to react at room temperature for 1 hour, and then the reaction was quenched by adding 60 μL of the termination buffer included in the kit. Subsequently, the quantities of the substrates (S) and the phosphorylated substrate (P) in the reaction solution were measured using LabChip EZ Reader II system (manufactured by Caliper Life Sciences) according to the protocol of the assay kit.
(Method for Evaluating Inhibitory Activity)
The heights of the peaks of the “substrate” and the “phosphorylated substrate” were expressed as S and P, respectively, and a blank containing the assay buffer instead of the enzyme solution was also measured.
The inhibition rate (%) of the test compound was calculated according to the following equation:
Inhibition rate (%)=(1−(C−A)/(B−A))×100
wherein, A, B, and C represent P/(P+S) of the blank well, P/(P+S) of the control solution well, and P/(P+S) of the compound-containing well, respectively.
The IC50 value was calculated via a regression analysis of the inhibition rate and the test compound concentration (logarithmic value).
The inhibiting activities of representative compounds of the present invention are shown against DYRK1A, DYRK1B, DYRK2, and DYRK3 in Tables 7 and 8. The kinase activity inhibitory effect was indicated with the mark *** at an IC50 value of less than 0.01 μM; the mark ** at 0.01 μM or more and less than 0.1 μM; the mark * at 0.1 μM or more and less than 1 μM; and the mark — at 1 μM or more (N.D. indicates not measured).

Another test deals with T3, DYRK2 (Homo sapiens, UniProt Q92630).
T3 construct: purchased Carna Biosciences, Inc. 04-132
T3 sequence (Q92630 1-601): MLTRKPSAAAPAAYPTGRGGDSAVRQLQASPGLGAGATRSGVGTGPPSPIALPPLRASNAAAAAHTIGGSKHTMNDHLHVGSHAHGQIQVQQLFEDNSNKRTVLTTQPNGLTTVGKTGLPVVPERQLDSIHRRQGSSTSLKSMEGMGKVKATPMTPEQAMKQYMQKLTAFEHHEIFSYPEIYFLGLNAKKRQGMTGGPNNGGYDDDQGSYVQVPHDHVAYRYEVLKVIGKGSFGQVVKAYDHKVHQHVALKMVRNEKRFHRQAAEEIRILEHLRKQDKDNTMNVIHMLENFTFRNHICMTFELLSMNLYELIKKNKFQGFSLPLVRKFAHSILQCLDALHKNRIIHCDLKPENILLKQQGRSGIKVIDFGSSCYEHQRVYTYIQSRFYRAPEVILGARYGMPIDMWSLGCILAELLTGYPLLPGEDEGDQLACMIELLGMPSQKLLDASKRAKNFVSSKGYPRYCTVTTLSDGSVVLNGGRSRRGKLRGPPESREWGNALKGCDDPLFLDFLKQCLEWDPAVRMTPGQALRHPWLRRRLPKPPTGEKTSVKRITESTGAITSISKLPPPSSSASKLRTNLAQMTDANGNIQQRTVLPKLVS
Description: Inhibition test on activity of DYRK family, mobility shift assay (MSA), DYRK2. To be noted: ATP 40 μM, FITC-labeled DYRKtide peptide substrate, room temperature 1 hour; for IC50: read-out: Inhibitory Activity 2 (IC50 against DYRK2). Put shortly:
as §1

The target in another test is T4, DYRK3 (Homo sapiens, UniProt O43781).
T4 construct: purchased Carna Biosciences, Inc. 04-133
T4 sequence (O43781 1-588): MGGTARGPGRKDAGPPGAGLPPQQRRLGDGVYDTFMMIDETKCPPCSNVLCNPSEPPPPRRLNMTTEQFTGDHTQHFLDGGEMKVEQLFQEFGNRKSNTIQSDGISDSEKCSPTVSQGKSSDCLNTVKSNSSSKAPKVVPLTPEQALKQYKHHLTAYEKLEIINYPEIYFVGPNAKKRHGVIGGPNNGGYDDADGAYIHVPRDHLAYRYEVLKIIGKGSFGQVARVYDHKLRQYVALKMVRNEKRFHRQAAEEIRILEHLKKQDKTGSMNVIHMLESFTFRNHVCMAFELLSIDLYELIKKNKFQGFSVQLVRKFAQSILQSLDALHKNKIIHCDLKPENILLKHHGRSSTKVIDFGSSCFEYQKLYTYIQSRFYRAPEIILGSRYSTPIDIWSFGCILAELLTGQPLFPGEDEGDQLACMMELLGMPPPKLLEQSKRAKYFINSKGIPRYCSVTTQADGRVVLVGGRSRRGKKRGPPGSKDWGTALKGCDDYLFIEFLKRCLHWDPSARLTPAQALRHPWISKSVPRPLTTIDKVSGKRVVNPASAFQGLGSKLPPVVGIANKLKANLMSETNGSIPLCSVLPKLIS
Kind of test: Inhibition test on activity of DYRK family, mobility shift assay (MSA), DYRK3. To be noted: ATP 20 μM, FITC-labeled DYRKtide peptide substrate, room temperature 1 hour; for IC50: read-out: Inhibitory Activity 3 (IC50 against DYRK3). Put shortly: as §1

T2 sequence (Q9Y463 whole entry): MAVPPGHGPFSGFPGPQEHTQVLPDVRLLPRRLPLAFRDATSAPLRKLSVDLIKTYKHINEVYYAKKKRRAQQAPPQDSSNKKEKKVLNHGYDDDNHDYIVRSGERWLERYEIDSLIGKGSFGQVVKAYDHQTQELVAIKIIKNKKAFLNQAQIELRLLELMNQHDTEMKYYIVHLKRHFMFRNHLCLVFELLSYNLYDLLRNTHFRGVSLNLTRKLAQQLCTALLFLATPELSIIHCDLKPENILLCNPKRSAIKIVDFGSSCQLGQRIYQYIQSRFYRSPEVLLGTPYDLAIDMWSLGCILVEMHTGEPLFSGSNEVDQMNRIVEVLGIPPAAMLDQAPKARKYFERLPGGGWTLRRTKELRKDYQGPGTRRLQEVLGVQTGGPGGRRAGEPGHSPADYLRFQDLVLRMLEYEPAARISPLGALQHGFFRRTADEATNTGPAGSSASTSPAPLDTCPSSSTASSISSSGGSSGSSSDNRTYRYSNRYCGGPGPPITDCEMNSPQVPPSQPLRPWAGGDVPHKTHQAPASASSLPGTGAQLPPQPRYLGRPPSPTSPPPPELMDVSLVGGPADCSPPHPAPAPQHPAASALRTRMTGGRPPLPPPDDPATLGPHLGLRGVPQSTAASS

As for `CC#CC1CNC(=O)N1c1nc2c(ccc3nnn(C)c32)s1` (single isomer, unassigned) [Example 30, 1-(1-methyl-1H-thiazolo[4′,5′:3,4]benz[1,2-d][1,2,3]triazol-7-yl)-5-(prop-1-yn-1-yl)imidazolidin-2-one], the “Inhibitory Activity 1a (IC50 against DYRK1A)” value (“Inhibitory Activity 1a” for short) on DYRK1A was “* * *”. Moreover, on DYRK1B, the “Inhibitory Activity 1b (IC50 against DYRK1B)” value (“Inhibitory Activity 1b” for short) is listed as “* * *”. For the same compound, the 50% inhibitory concentration (IC50) on DYRK2 and at DYRK3 was 0.1 to 1 µM throughout.
On to `CC#CC1CNC(=O)N1c1nc2c3c(ccc2s1)OCCN3` (racemic) [Example 38, (RS)-1-(8,9-dihydro-7H-thiazolo[4′,5′:3,4]benz[1,2-b][1,4]oxazin-2-yl)-5-(prop-1-yn-1-yl)imidazolidin-2-one], for which the “Inhibitory Activity 1a” value at DYRK1A is recorded as “* * *”. Further, the “Inhibitory Activity 1b” value at DYRK1B is “* * *”. The half-maximal inhibitory concentration (IC50) at DYRK2 and on DYRK3 was 0.1 to 1 µM each time.
Regarding `CC#CC1CNC(=O)N1c1nc2c3c(ccc2s1)OCCN3C` (racemic) [Example 25, (RS)-1-(9-methyl-8,9-dihydro-7H-thiazolo[4′,5′;3,4]benz[1,2-b][1,4]oxazin-2-yl)-5-(prop-1-yn-1-yl)imidazolidin-2-one], the “Inhibitory Activity 1a” value at DYRK1A is “* * *”. Moreover, the “Inhibitory Activity 1b” value at DYRK1B is “* * *”. The IC50 at DYRK2 and at DYRK3 was 0.1 to 1 µM throughout.
On to `CC#C[C@H]1CNC(=O)N1c1nc2c3c(ccc2s1)OCO3` [Example 3, (S)-1-([1,3]dioxolo[4′,5′:5,6]benzo[1,2-d]thiazol-7-yl)-5-(1-propyn-1-yl)imidazolidin-2-one], for which the “Inhibitory Activity 1a” value on DYRK1A is on record as “* *”. The “Inhibitory Activity 1b” value on DYRK1B is given as “* *”. Further, the IC50 at DYRK2 and on DYRK3 was no less than 1 µM in each case.
Consider `CC#CC1CNC(=O)N1c1nc2c(ccc3nnn(C)c32)s1` (single isomer, unassigned) [Example 29, 1-(1-methyl-1H-thiazolo[4′,5′:3,4]benz[1,2-d][1,2,3]triazol-7-yl)-5-(prop-1-yn-1-yl)imidazolidin-2-one], for which the IC50 is 0.1 to 1 µM at DYRK1A, 0.1 to 1 µM on DYRK1B, no less than 1 µM at DYRK2 and no less than 1 µM on DYRK3.
On to `CC#CC1CNC(=O)N1c1nc2c(ccc3ncccc32)s1` (racemic) [Example 27, (RS)-5-(prop-1-yn-1-yl)-1-(thiazolo[4,5-f]quinolin-2-yl)imidazolidin-2-one], for which, at DYRK1A, the “Inhibitory Activity 1a” value is listed as “* **”. The “Inhibitory Activity 1b” value on DYRK1B is recorded as “* * *”. The IC50 on DYRK2 was 0.1 to 1 µM. Also, the “Inhibitory Activity 3 (IC50 against DYRK3)” value on DYRK3 was “* *”.
On to `CC#CC1CNC(=O)N1c1nc2c(ccc3nccnc32)s1` (racemic) [Example 24, (RS)-5-(prop-1-yn-1-yl)-1-(thiazolo[4,5-f]quinoxalin-2-yl)imidazolidin-2-one], for which, on DYRK1A, the “Inhibitory Activity 1a” value was “* * *”. Moreover, on DYRK1B, the “Inhibitory Activity 1b” value is reported as “* * *”. Besides, the IC50 at DYRK2 and on DYRK3 was 0.1 to 1 µM each time.
Consider `CC#C[C@@H]1[C@H](C)NC(=O)N1c1nc2c3c(ccc2s1)OCC3` [Example 5, (4S,5R)-1-(7,8-dihydrobenzofuro[4,5-d]thiazol-2-yl)-4-methyl-5-(prop-1-yn-1-yl)imidazolidin-2-one], for which the “Inhibitory Activity 1a” value on DYRK1A was “* * *”. The “Inhibitory Activity 1b” value at DYRK1B is listed as “* * *”. Also, the IC50 at DYRK2 and at DYRK3 was 0.1 to 1 µM each time.
As to `CC#CC1CNC(=O)N1c1nc2c(ccc3nnn(C)c32)s1` (racemic) [Example 28, (RS)-1-(1-methyl-1H-thiazolo[4′,5′:3,4]benz[1,2-d][1,2,3]triazol-7-yl)-5-(prop-1-yn-1-yl)imidazolidin-2-one], the “Inhibitory Activity 1a” value at DYRK1A was “* * *”. Also, the “Inhibitory Activity 1b” value at DYRK1B is on record as “* * *”. For the same compound, the half-maximal inhibitory concentration (IC50) on DYRK2 was no less than 1 µM; at DYRK3, 0.1 to 1 µM.
Turning to `CC#CC1CNC(=O)N1c1nc2c3c(ccc2s1)OCCN3C(C)=O` (racemic) [Example 39, (RS)-1-(9-acetyl-8,9-dihydro-7H-thiazolo[4′,5′:3,4]benz[1,2-b][1,4]oxazin-2-yl)-5-(prop-1-yn-1-yl)imidazolidin-2-one], the IC50 was 0.1 to 1 µM at DYRK1A, no less than 1 µM at DYRK1B, no less than 1 µM on DYRK2 and no less than 1 µM at DYRK3.
Consider `CC#CC1CNC(=O)N1c1nc2c(ccc3ncn(C4CCOCC4)c32)s1` (racemic) [Example 32, (RS)-5-(prop-1-yn-1-yl)-1-[8-(tetrahydro-2H-pyran-4-yl)-8H-imidazo[4′,5′:5,6]benz [1,2-d]thiazol-2-yl]imidazolidin-2-one], for which the “Inhibitory Activity 1a” value on DYRK1A was “* * *”. In addition, on DYRK1B, the “Inhibitory Activity 1b” value was “* * *”. Moreover, the “Inhibitory Activity 2 (IC50 against DYRK2)” value at DYRK2 is “* *”. Also, at DYRK3, the “Inhibitory Activity 3 (IC50 against DYRK3)” value was “* *”.
